According to PubChem BioAssay AID328 (DTP/NCI, 2004):
“And” between values parts separate entries of the source, which are not always exact repeats. Identical values can stand only once. Toxic doses and inconclusive results are not listed.

Tested on: BDF1 mice, P388 leukemia ip, median survival T/C
Assay: NCI In Vivo Anticancer Drug Screen. Data for tumor model P388 Leukemia (intraperitoneal) in B6D2F1 (BDF1) mice
Conditions: endpoint: median survival time, higher = longer survival
Method in brief: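 Steps: implant the tumour, treat one group with compound and another with vehicle, record survival, then divide treated by control.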

[1] = dose: 100.0 mg/kg/injection, schedule: Q01DX009 (ip), vehicle: saline with Tween-80
[2] = dose: 200.0 mg/kg/injection, schedule: Q01DX009 (ip), vehicle: saline with Tween-80
[3] = dose: 200.0 mg/kg/injection, schedule: Q04DX003 (ip), vehicle: saline with Tween-80
[4] = dose: 400.0 mg/kg/injection, schedule: Q01DX009 (ip), vehicle: saline with Tween-80
[5] = dose: 400.0 mg/kg/injection, schedule: Q04DX003 (ip), vehicle: saline with Tween-80
[6] = dose: 50.0 mg/kg/injection, schedule: Q01DX009 (ip), vehicle: saline with Tween-80
[7] = dose: 100.0 mg/kg/injection, schedule: Q04DX003 (ip), vehicle: saline with Tween-80
[8] = dose: 100.0 mg/kg/injection, schedule: Q04DX003 (ip), vehicle: Klucel (hydroxypropylcellulose) (HPC)
[9] = dose: 200.0 mg/kg/injection, schedule: Q04DX003 (ip), vehicle: Klucel (hydroxypropylcellulose) (HPC)
[10] = dose: 50.0 mg/kg/injection, schedule: Q04DX003 (ip), vehicle: saline with Tween-80

COC(=O)NC1C(C)C=CC(C)C1I (stereo unspecified)
T/C [1]: 95 % of control
T/C [2]: 113 % of control
T/C [3]: 105 % of control
T/C [4]: 100 % of control
T/C [5]: 110 % of control

COc1ccc(-c2cc(=O)c3cc(OC)c(OC)cc3o2)cc1OC
T/C (dose: 1.88 mg/kg/injection, schedule: Q01DX009 (ip), vehicle: saline): 94 % of control
T/C (dose: 3.75 mg/kg/injection, schedule: Q01DX009 (ip), vehicle: saline): 91 % of control

CC(=O)OC1(C)N=NC2(CCCCC2)O1 (stereo unspecified)
T/C [6]: 102 % of control
T/C [1]: 98 % of control
T/C [2]: 112 % of control

C(=NC(c1ccccc1)(c1ccccc1)c1ccccc1)=NC(c1ccccc1)(c1ccccc1)c1ccccc1
T/C (dose: 12.5 mg/kg/injection, schedule: Q01DX009 (ip), vehicle: gum acacia): 87 % of control
T/C (dose: 25.0 mg/kg/injection, schedule: Q01DX009 (ip), vehicle: gum acacia): 100 % of control
T/C (dose: 50.0 mg/kg/injection, schedule: Q01DX009 (ip), vehicle: gum acacia): 95 % of control
T/C (dose: 100.0 mg/kg/injection, schedule: Q01DX009 (ip), vehicle: gum acacia): 88 % of control
T/C (dose: 100.0 mg/kg/injection, schedule: Q04DX003 (ip), vehicle: gum acacia): 100 % of control
T/C (dose: 200.0 mg/kg/injection, schedule: Q01DX009 (ip), vehicle: gum acacia): 88 % of control
T/C (dose: 200.0 mg/kg/injection, schedule: Q04DX003 (ip), vehicle: gum acacia): 91 % of control

Cc1cc(O)c2c(c1)C(=O)C(c1c(C)cc3c(c1O)C(=O)C=CC3=O)=CC2=O
T/C (dose: 1.25 mg/kg/injection, schedule: Q01DX009 (ip), vehicle: saline): 89 % of control
T/C (dose: 2.5 mg/kg/injection, schedule: Q01DX009 (ip), vehicle: saline): 114 % of control
T/C (dose: 5.0 mg/kg/injection, schedule: Q01DX009 (ip), vehicle: saline): 102 % of control
T/C (dose: 10.0 mg/kg/injection, schedule: Q01DX009 (ip), vehicle: saline): 105 % of control and 116 % of control
T/C (dose: 14.0 mg/kg/injection, schedule: Q01DX009 (ip), vehicle: saline): 106 % of control
T/C (dose: 22.0 mg/kg/injection, schedule: Q01DX009 (ip), vehicle: saline): 116 % of control
T/C (dose: 35.0 mg/kg/injection, schedule: Q01DX009 (ip), vehicle: saline): 99 % of control

C=CCc1ccccc1C=O
T/C [7]: 97 % of control
T/C [3]: 95 % of control
T/C [5]: 97 % of control

CC(=Nc1ccccc1)C1=C(O)C(Cc2ccc(O)cc2)NC1=O (stereo unspecified)
T/C [6]: 110 % of control
T/C [1]: 101 % of control

COc1c(C(C)(C)C)cc([N+](=O)[O-])c(C)c1[N+](=O)[O-]
T/C [8]: 100 % of control
T/C [9]: 100 % of control
T/C (dose: 400.0 mg/kg/injection, schedule: Q04DX003 (ip), vehicle: Klucel (hydroxypropylcellulose) (HPC)): 95 % of control

c1ccc(-c2nnc3oc(-c4cccs4)nn23)cc1
T/C [1]: 86 % of control
T/C [2]: 90 % of control
T/C [4]: 90 % of control

CC1CC(C)(O)C2C3(C)CCCC2(COC3=O)C12CCC1(CCOC1=O)O2 (stereo unspecified)
T/C (dose: 2.5 mg/kg/injection, schedule: Q01DX009 (ip), vehicle: Klucel (hydroxypropylcellulose) (HPC)): 88 % of control
T/C (dose: 5.0 mg/kg/injection, schedule: Q01DX009 (ip), vehicle: Klucel (hydroxypropylcellulose) (HPC)): 106 % of control
T/C (dose: 10.0 mg/kg/injection, schedule: Q01DX009 (ip), vehicle: Klucel (hydroxypropylcellulose) (HPC)): 95 % of control

CCCC(=O)Nc1ccc(NS(C)(=O)=O)cc1OC
T/C (dose: 100.0 mg/kg/injection, schedule: Q01DX009 (ip), vehicle: Klucel (hydroxypropylcellulose) (HPC)): 95 % of control
T/C [8]: 100 % of control
T/C (dose: 200.0 mg/kg/injection, schedule: Q01DX009 (ip), vehicle: Klucel (hydroxypropylcellulose) (HPC)): 90 % of control
T/C [9]: 95 % of control
T/C (dose: 400.0 mg/kg/injection, schedule: Q01DX009 (ip), vehicle: Klucel (hydroxypropylcellulose) (HPC)): 90 % of control

O=C(Nc1ccc(S(=O)(=O)Nc2ccc(N=Nc3ccccc3)cc2)cc1)C(SC1=NC=NC2=NC=NC21)SC1=NC=NC2=NC=NC21 (stereo unspecified)
T/C (dose: 100.0 mg/kg/injection, schedule: Q04DX003 (ip), vehicle: saline): 95 % of control
T/C (dose: 200.0 mg/kg/injection, schedule: Q04DX003 (ip), vehicle: saline): 105 % of control
T/C (dose: 400.0 mg/kg/injection, schedule: Q04DX003 (ip), vehicle: saline): 115 % of control

N#CC1(C#N)C(c2ccccc2)C1(C#N)C#N
T/C (dose: 2.0 mg/kg/injection, schedule: Q01DX009 (ip), vehicle: saline with Tween-80): 120 % of control
T/C (dose: 2.66 mg/kg/injection, schedule: Q01DX009 (ip), vehicle: saline with Tween-80): 122 % of control
T/C (dose: 2.66 mg/kg/injection, schedule: Q01DX009 (ip), vehicle: saline): 109 % of control and 120 % of control
T/C (dose: 4.0 mg/kg/injection, schedule: Q01DX009 (ip), vehicle: saline): 108 % of control
T/C (dose: 6.0 mg/kg/injection, schedule: Q01DX009 (ip), vehicle: saline): 118 % of control
T/C (dose: 6.25 mg/kg/injection, schedule: Q01DX009 (ip), vehicle: saline with Tween-80): 115 % of control
T/C (dose: 8.0 mg/kg/injection, schedule: Q01DX009 (ip), vehicle: saline with Tween-80): 120 % of control

Cc1cc(=O)[nH]c2c1CCC2
T/C [6]: 109 % of control
T/C [10]: 100 % of control
T/C [1]: 90 % of control
T/C [7]: 100 % of control
T/C [2]: 104 % of control
T/C [3]: 100 % of control

CCCCOC1OC[N+](C)(C)CC1(C)C (stereo unspecified)
T/C (dose: 25.0 mg/kg/injection, schedule: Q04DX003 (ip), vehicle: saline with Tween-80): 102 % of control
T/C [10]: 105 % of control
T/C [7]: 100 % of control and 105 % of control

CCCCC(O)C1=CC(=O)C2CC(C)=C(C)CC2C1=O (stereo unspecified)
T/C [7]: 92 % of control
T/C [3]: 102 % of control
T/C [5]: 100 % of control

COc1cc2c(c(OC)c1OC)-c1cc(I)c(O)cc1[C@@H](NC(C)=O)CC2
T/C (dose: 2.75 mg/kg/injection, schedule: Q04DX003 (ip), vehicle: saline with Tween-80): 110 % of control
T/C (dose: 5.5 mg/kg/injection, schedule: Q04DX003 (ip), vehicle: saline with Tween-80): 104 % of control
T/C (dose: 11.0 mg/kg/injection, schedule: Q04DX003 (ip), vehicle: saline with Tween-80): 155 % of control
T/C (dose: 22.0 mg/kg/injection, schedule: Q04DX003 (ip), vehicle: saline with Tween-80): 160 % of control
T/C (dose: 66.0 mg/kg/injection, schedule: Q04DX003 (ip), vehicle: saline with Tween-80): 185 % of control and 222 % of control
T/C [7]: 180 % of control and 194 % of control
T/C (dose: 150.0 mg/kg/injection, schedule: Q04DX003 (ip), vehicle: saline with Tween-80): 205 % of control

CC(=O)C(C(C)=O)c1ccccc1.CC(=O)C(C(C)=O)c1ccccc1.[Ni]
T/C (dose: 3.0 mg/kg/injection, schedule: Q01DX009 (ip), vehicle: Klucel (hydroxypropylcellulose) (HPC)): 110 % of control
T/C (dose: 6.0 mg/kg/injection, schedule: Q01DX009 (ip), vehicle: Klucel (hydroxypropylcellulose) (HPC)): 100 % of control
T/C (dose: 6.0 mg/kg/injection, schedule: Q04DX003 (ip), vehicle: other): 100 % of control
T/C (dose: 12.0 mg/kg/injection, schedule: Q01DX009 (ip), vehicle: Klucel (hydroxypropylcellulose) (HPC)): 100 % of control
T/C (dose: 12.0 mg/kg/injection, schedule: Q04DX003 (ip), vehicle: other): 95 % of control
T/C (dose: 25.0 mg/kg/injection, schedule: Q04DX003 (ip), vehicle: other): 100 % of control

c1ccc2c3c(ccc2c1)Sc1ccc2ccccc2c1N3
T/C [1]: 90 % of control
T/C [7]: 104 % of control
T/C [2]: 90 % of control
T/C [3]: 90 % of control
T/C [4]: 90 % of control
T/C [5]: 90 % of control

CC(C)(C)C(=O)CC(O)(C(F)(F)Cl)C(F)(F)Cl
T/C [1]: 100 % of control
T/C [2]: 100 % of control

Cc1nnc2n1N=C(c1ccc(-c3ccccc3)cc1)CS2
T/C [7]: 104 % of control
T/C [3]: 92 % of control
T/C [5]: 93 % of control

Cc1cc(C)nc(NNc2nc(C)cc(C)n2)n1
T/C [1]: 92 % of control
T/C [7]: 91 % of control
T/C [2]: 103 % of control
T/C [3]: 95 % of control
T/C [4]: 89 % of control
T/C [5]: 95 % of control

CCSc1c(S)cnn(C)c1=O
T/C (dose: 50.0 mg/kg/injection, schedule: Q01DX005 (ip), vehicle: saline with Tween-80): 90 % of control
T/C (dose: 100.0 mg/kg/injection, schedule: Q01DX005 (ip), vehicle: saline with Tween-80): 90 % of control
T/C (dose: 200.0 mg/kg/injection, schedule: Q01DX005 (ip), vehicle: saline with Tween-80): 97 % of control

CCOC(=O)c1nnc(-c2ccccc2)c(-c2ccccc2)n1
T/C [7]: 104 % of control
T/C [3]: 96 % of control
T/C [5]: 89 % of control
